In patent US20250304576A1 (Cancer Research Technology Limited, priority 2022, published 2025):

biological target: T1, Recombinant IKKα (Homo sapiens, UniProt O15111); experiment: DELFIA IKKα kinase assay (apparent Ki, Cheng-Prusoff); assay type: biochemical; details: DELFIA assay (first line of an example)
T1 construct: purchased Millipore, Dundee, UK
T1 sequence (O15111 1-745): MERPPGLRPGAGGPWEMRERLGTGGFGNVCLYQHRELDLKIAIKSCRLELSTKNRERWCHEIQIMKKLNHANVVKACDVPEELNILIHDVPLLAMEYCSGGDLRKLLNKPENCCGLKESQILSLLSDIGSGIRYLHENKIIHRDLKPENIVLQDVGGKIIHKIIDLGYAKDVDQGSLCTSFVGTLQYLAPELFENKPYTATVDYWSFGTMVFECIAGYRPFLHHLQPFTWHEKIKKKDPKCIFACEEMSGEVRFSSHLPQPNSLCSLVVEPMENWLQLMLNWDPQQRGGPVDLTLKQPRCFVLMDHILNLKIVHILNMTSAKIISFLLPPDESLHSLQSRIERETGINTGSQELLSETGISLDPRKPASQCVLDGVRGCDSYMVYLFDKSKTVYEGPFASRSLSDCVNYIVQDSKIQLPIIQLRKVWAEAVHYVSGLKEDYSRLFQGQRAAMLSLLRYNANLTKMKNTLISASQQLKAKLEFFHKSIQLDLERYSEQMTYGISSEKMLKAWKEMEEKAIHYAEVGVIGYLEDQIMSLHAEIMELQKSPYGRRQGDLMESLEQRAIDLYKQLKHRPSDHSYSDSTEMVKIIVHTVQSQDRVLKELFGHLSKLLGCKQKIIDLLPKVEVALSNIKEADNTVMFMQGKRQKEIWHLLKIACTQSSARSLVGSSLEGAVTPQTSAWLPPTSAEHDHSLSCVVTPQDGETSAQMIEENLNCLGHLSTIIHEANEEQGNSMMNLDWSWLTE
In short: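 DELFIA time-resolved fluorescence (ex 340/em 615 nm) quantified phosphorylation of a biotinylated IκB-α Ser32 peptide (0.375 μM) by 37 nM recombinant IKKα or IKKβ. Reactions used 40 μM ATP, Tris pH 7.5 buffer with MgCl2, DTT and BSA, 60 min at 30° C. Cheng-Prusoff equation gave apparent Ki.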

First: Nc1n[nH]c2c(C#CCCCN3CCCCC3)cc(-c3ccnc4[nH]ccc34)cc12 [Example 212, 7-(5-(Piperidin-1-yl)pent-1-yn-1-yl)-5-(1H-pyrrolo[2,3-b]pyridin-4-yl)-1H-indazol-3-amine]
Second: Nc1n[nH]c2c(C#CC3CCCCC3)cc(-c3ccnc4[nH]ccc34)cc12 [Example 204, 7-(Cyclohexylethynyl)-5-(1H-pyrrolo[2,3-b]pyridin-4-yl)-1H-indazol-3-amine]
The Ki of the first is 5.6-fold lower: 0.03 µM for the first, 0.169 µM for the second.

First: Nc1n[nH]c2ccc(-c3ccnc4[nH]c(C5CCCCC5)cc34)cc12 [Example 219, 5-(2-Cyclohexyl-1H-pyrrolo[2,3-b]pyridin-4-yl)-1H-indazol-3-amine]
Second: Nc1n[nH]c2ccc(-c3ccnc4[nH]c(C5CCOCC5)cc34)cc12 [Example 228, 5-(2-(tetrahydro-2H-pyran-4-yl)-1H-pyrrolo[2,3-b]pyridin-4-yl)-1H-indazol-3-amine]
The Ki of the first is 3.5-fold higher: 0.042 µM for the first, 0.012 µM for the second.

Compared with `Nc1n[nH]c2ccc(-c3ccnc4[nH]c(CCCN5CCOCC5)cc34)cc12` [Example 271, 5-(2-(3-Morpholinopropyl)-1H-pyrrolo[2,3-b]pyridin-4-yl)-1H-indazlo-3-amine], `Nc1n[nH]c2ccc(-c3ccnc4[nH]c(CCN5CCCCC5)cc34)cc12` [Example 267, 5-(2-(2-(Piperidin-1-yl)ethyl)-1H-pyrrolo[2,3-b]pyridine-4-yl)-1H-indazol-3-amine] is 4.8-fold higher in Ki: 0.011 µM for the first, 0.053 µM for the second. The first binds more tightly here.

Compared with `Nc1n[nH]c2ccc(-c3ccnc4[nH]c(CO)cc34)cc12` [Example 224], `CC(C)(C)Cc1cc2c(-c3ccc4[nH]nc(N)c4c3)ccnc2[nH]1` [Example 220, 5-(2-Neopentyl-1H-pyrrolo[2,3-b]pyridin-4-yl)-1H-indazol-3-amine] is 12-fold higher in Ki: 0.005 µM for the first, 0.058 µM for the second. The first binds more tightly here.

Going from `Nc1n[nH]c2ccc(-c3ccnc4[nH]c(C5CCCCN5)cc34)cc12` (stereo not shown) [Example 250, 5-(2-(Piperidin-2-yl)-1H-pyrrolo[2,3-b]pyridine-4-yl)-1H-indazol-3-amine] to `Nc1n[nH]c2ccc(-c3ccnc4[nH]c(C5CCCCO5)cc34)cc12` (stereo not shown) [Example 229, 5-(2-(Tetrahydro-2H-pyran-2-yl)-1H-pyrrolo[2,3-b]pyridin-4-yl)-1H-indazol-3-amine], the Ki falls from 0.38 µM to 0.027 µM (14-fold). The second binds more tightly here.

Going from `Nc1n[nH]c2ccc(-c3ccnc4[nH]c(C(=O)NC5CCCCC5)cc34)cc12` [Example 236, 4-(3-Amino-1H-indazol-5-yl)-N-cyclohexyl-1H-pyrrolo[2,3-b]pyridine-2-carboxamide] to `Nc1n[nH]c2ccc(-c3ccnc4[nH]c(CC5CCCCC5)cc34)cc12` [Example 221, 5-(2-(Cyclohexylmethyl)-1H-pyrrolo[2,3-b]pyridin-4-yl)-1H-indazol-3-amine], the Ki rises from 0.01 µM to 0.038 µM (3.8-fold).

Compared with `Nc1n[nH]c2ccc(-c3ccnc4[nH]c(CC5CCOCC5)cc34)cc12` [Example 230, 5-(2-((tetrahydro-2H-pyran-4-yl)methyl)-1H-pyrrolo[2,3-b]pyridin-4-yl)-1H-indazol-3-amine], `CN1CCCN(Cc2cc3c(-c4ccc5[nH]nc(N)c5c4)ccnc3[nH]2)CC1` [Example 266, 5-(2-((4-Methyl-1,4-diazepan-1-yl)methyl)-1H-pyrrolo[2,3-b]pyridin-4-yl)-1H-indazol-3-amine] is 4.2-fold higher in Ki: 0.011 µM for the first, 0.046 µM for the second. The first binds more tightly here.

Compared with `Nc1n[nH]c2ccc(-c3ccnc4[nH]c(C(=O)N5CCCC5)cc34)cc12` [Example 234, (4-(3-Amino-1H-indazol-5-yl)-1H-pyrrolo[2,3-b]pyridin-2-yl)(pyrrolidin-1-yl)methanone], `CC(C)(C)NCc1cc2c(-c3ccc4[nH]nc(N)c4c3)ccnc2[nH]1` [Example 248, 5-(2-((tert-Butylamino)methyl)-1H-pyrrolo[2,3-b]pyridine-4-yl)-1H-indazol-3-amine] is 11-fold higher in Ki: 0.019 µM for the first, 0.202 µM for the second. The first binds more tightly here.

`CC(C)(O)C#Cc1cc(-c2ccnc3[nH]ccc23)cc2c(N)n[nH]c12` [Example 206, 4-(3-Amino-5-(1H-pyrrolo[2,3-b]pyridin-4-yl)-1H-indazol-7-yl)-2-methylbut-3-yn-2-ol] gave a Ki of 0.081 µM.

same assay, conditions: non-italicised figure: DELFIA assay

First: CC(C)(O)C#Cc1cc(-c2ccnc(N)c2)cc2c(N)n[nH]c12 [Example 140, 4-(3-Amino-5-(2-aminopyridin-4-yl)-1H-indazol-7-yl)-2-methylbut-3-yn-2-ol]
Second: CC(C)(O)C#Cc1c(-c2ccc3[nH]nc(N)c3c2)ccnc1N [Example 87, 4-(2-Amino-4-(3-amino-1H-indazol-5-yl)pyridine-3-yl)-2-methylbut-3-yn-2-ol]
The Ki of the first is 35-fold higher: 0.281 µM for the first, 0.008 µM for the second.

Compared with `CC(C)(C)OCC#Cc1c(-c2ccc3[nH]nc(N)c3c2)ccnc1N` [Example 88, 5-(2-Amino-3-(3-(tert-butoxy)prop-1-yn-1-yl)pyridine-4-yl)-1H-indazol-3-amine], `Nc1nccc(-c2ccc3[nH]nc(N)c3c2)c1C#CCO` [Example 83, 3-(2-Amino-4-(3-amino-1H-indazol-5-yl)pyridine-3-yl)prop-2-yn-1-ol] is 22-fold lower in Ki: 0.133 µM for the first, 0.006 µM for the second. The second binds more tightly here.

Compared with `Nc1nccc(-c2ccc3[nH]nc(N)c3c2)c1C#CCCN1CCCCC1` [Example 93, 5-(2-Amino-3-(4-(piperidin-1-yl)but-1-yn-1-yl)pyridin-4-yl)-1H-indazol-3-amine], `Nc1nccc(-c2ccc3[nH]nc(N)c3c2)c1C#CCCCO` [Example 85, 5-(2-Amino-4-(3-amino-1H-indazol-5-yl)pyridine-3-yl)pent-4-yn-1-ol] is 8-fold lower in Ki: 0.032 µM for the first, 0.004 µM for the second. The second binds more tightly here.

`Nc1nccc(-c2ccc3[nH]nc(N)c3c2)c1C#CC1CCCC1` [Example 73, 5-(2-Amino-3-(cyclopentylethynyl)pyridine-4-yl)-1H-indazol-3-amine] and `Nc1nccc(-c2ccc3[nH]nc(N)c3c2)c1C#CCCC(=O)N1CCOCC1` [Example 99, 5-(2-Amino-4-(3-amino-1H-indazol-5-yl)pyridine-3-yl)-1-morpholinopent-4-yn-1-one] are within 1.5-fold of each other in Ki: 0.012 µM for the first, 0.015 µM for the second.
